Data as given in US5240962A, “Antiobesity and fat-reducing agents” (priority 1991, dated 1993).
Read-outs that look alike come from different tables or passages of the source.

How the values were obtained:
[1] = Effect on body weight of slightly obese mice, drug-food mixture; assay type: in vivo, mice (ICR); settings: for Body weight change compared with control group (in words): 4 weeks; for Body weight gain, Week Four / Body weight gain, Week One / Body weight gain, Week Three / Body weight gain, Week Two: ad libitum, female ICR mice
Experimental: Slightly obese female mice (ICR) having an average weight of 20-25 g were used in these studies. Compound 1 (Example 1; anacardic acid) was administered as a drug-food mixture. Normal mouse chow was powdered and the drug added to achieve a final concentration of 1 mg (low dose), 3 mg (intermediate dose), and 10 mg (high dose) per 100 g of food. The powdered chow was then repelleted into its usual form. Control chow was similarly prepared without addition of drug. Four groups of ten animals were assigned to receive normal chow (controls) or the drug in the low dose, in the intermediate dose or in the high dose. The animals were fed ad libitum over a 4-week period.

[2] = Toxicity in mice over 4 weeks; assay type: in vivo; settings: 300 mg/kg dose, over a period of 4 weeks
Description: This finding, combined with in vitro enzyme inhibiting activities, provides evidence that the naturally occurring phenols of the formula (I) have unexpected utility in treating obesity in a mammalian subject.

[3] = molecular target: T1, α-glucosidase (EC3.2.1.20) (Saccharomyces cerevisiae, UniProt P53341); assay: α-Glucosidase inhibition; assay type: biochemical
T1 construct: purchased Sigma Chemical Company
T1 sequence (P53341 whole entry): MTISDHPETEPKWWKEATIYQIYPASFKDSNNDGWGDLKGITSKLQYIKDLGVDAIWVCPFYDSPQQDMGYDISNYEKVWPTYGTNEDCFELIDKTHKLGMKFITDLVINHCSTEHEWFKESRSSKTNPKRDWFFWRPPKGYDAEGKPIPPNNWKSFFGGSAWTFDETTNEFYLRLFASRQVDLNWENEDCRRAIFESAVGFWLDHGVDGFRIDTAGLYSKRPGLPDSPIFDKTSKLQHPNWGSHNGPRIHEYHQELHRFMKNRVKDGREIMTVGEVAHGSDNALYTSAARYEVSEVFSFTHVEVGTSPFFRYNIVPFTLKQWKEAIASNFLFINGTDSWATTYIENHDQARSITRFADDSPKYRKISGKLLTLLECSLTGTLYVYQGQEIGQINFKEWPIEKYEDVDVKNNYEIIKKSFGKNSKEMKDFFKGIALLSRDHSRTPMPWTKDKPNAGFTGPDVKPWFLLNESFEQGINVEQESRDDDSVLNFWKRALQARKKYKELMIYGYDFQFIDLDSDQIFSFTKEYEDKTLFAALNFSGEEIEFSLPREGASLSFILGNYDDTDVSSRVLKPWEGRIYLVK
Experimental: The assay was conducted essentially according to the procedure of H. L. Lai, as described in Biochem. Biophys.
The α-glucosidase (EC3.2.1.20) was purchased from Sigma Chemical Company. The enzyme solution (100 μg/ml, 0.1 ml), 0.1 M phosphate buffer (pH 6.8, 2.55 ml), 10 mM nitrophenyl glucoside (0.1 ml), and a sample solution in DMSO (0.15 ml) were combined and incubated for 10 minutes at 37° C. After incubation, the hydrolysis was stopped by the addition of 1 ml of 16(w/v)% of sodium carbonate. Liberated p-nitrophenol was measured at 400 nm.

[4] = Effect on body fat in rats on carbohydrate enriched diet; assay type: in vivo, Sprague-Dawley rats; settings: for Epididymal Fat Weight / Final Body Weight / Inguinal Fat Weight: male rats
Description: Male Sprague-Dawley weanling rats (Bioresearch Services, Oriental Yeast Co. Ltd.) of three weeks old were used in this study. They were allotted to two treatment groups of five rats when they weighed an average of about 65 g. The animals were fed carbohydrate enriched diets ad libitum for a period of 31 days.
Control rate received the above diet. Two groups received different levels of compound 1 (Example 1), 0.1% and 0.2%, respectively. At the conclusion of the test, all animals were sacrificed. Inguinal fat, epididymal fat, liver, kidney, spleen, lung, heart, thymus gland, brown adipose tissue and pectoral muscle were excised and weighted.

[5] = Effect on fat content of broiler chickens; assay type: in vivo; settings: 27 days; for Fat Weight / Final Body Weight: broilers
Experimental: Four groups of 5 seven-day old broiler having an average weight of 129 g were used. A test diet was available ad libitum to all birds during the test period (27 days).
Control birds received no test compound. […] At the conclusion of the test, all birds were sacrificed and processed to determine fat weights and body weights. Feed intake was also recorded.

[6] = molecular target: T2, invertase (or β-fructofuranosidase; EC 3.2.1.26) (Saccharomyces cerevisiae, UniProt P00724); assay: Invertase inhibition; assay type: biochemical; settings: 200 μg/ml; pH 4.5, sucrose substrate; read-out: % Inhibition of invertase enzyme activity
T2 construct: purchased Sigma Chemical Company
T2 sequence (P00724 20-532): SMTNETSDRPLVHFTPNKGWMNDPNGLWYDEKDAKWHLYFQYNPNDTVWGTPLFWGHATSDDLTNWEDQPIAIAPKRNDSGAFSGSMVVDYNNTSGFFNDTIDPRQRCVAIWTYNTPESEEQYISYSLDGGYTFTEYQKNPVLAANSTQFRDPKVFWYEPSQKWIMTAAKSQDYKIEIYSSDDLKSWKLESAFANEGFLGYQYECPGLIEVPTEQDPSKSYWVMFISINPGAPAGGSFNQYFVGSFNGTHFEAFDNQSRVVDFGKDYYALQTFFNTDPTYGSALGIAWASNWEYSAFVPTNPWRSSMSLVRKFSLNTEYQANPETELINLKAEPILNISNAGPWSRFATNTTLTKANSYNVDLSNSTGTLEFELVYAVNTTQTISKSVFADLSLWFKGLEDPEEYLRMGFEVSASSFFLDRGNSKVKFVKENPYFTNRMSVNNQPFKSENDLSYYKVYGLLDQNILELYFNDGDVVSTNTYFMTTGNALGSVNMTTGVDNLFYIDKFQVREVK
Experimental: The following phenols (compound numbers correspond to those designated in Example 1) were tested at a concentration of 200 μg/ml for their ability to inhibit invertase enzyme activity. The assay was conducted essentially according to the procedure of I. H. Segel, et al., as described in Biochemical Calculation, John Wiley Sons, New York, p. 287-290 (1976).
The invertase (or β-fructofuranosidase; EC 3.2.1.26) was purchased from Sigma Chemical Company. The enzyme solution (100 μg/ml, 0.1 ml), 0.2 M acetate buffer (pH 4.5, 0.2 ml), 0.5 M sucrose (0.2 ml), and a sample solution in water/DMSO (0.6 ml) were combined and incubated for 10 minutes at 37° C. After incubation, the hydrolysis was stopped by the addition of Nelson reagent. Liberated reduced sugar was measured at 500 nm by the method of Somogyi-Nelson [N. Nelson, et al., J. Biol. Chem., 153, 375 (1944)].

[7] = High dose, 10 mg per 100 g of food
[8] = Intermediate dose, 3 mg per 100 g of food
[9] = Low dose, 1 mg per 100 g of food
[10] = 10 minutes at 37° C., pH 6.8, nitrophenyl glucoside substrate

CCCCCCCCCCCCCCCc1cccc(O)c1C(=O)O [Compound 1, 6 - Pentadecylsalicylic Acid]
Body weight change compared with control group (in words) [1, 7]: gained less weight than mice in the control group | Body weight gain, Week Four [1, 7]: +4.75 g | Body weight gain, Week One [1, 7]: +0.31 g | Body weight gain, Week Three [1, 7]: +4.13 g | Body weight gain, Week Two [1, 7]: +1.88 g | Body weight change compared with control group (in words) [1, 8]: gained less weight than mice in the control group | Body weight gain, Week Four [1, 8]: +5.00 g | Body weight gain, Week One [1, 8]: +0.56 g | Body weight gain, Week Three [1, 8]: +4.5 g | Body weight gain, Week Two [1, 8]: +2.13 g | Body weight change compared with control group (in words) [1, 9]: no significant deviation in body weight from the control group | Body weight gain, Week Four [1, 9]: +5.13 g | Body weight gain, Week One [1, 9]: +0.63 g | Body weight gain, Week Three [1, 9]: +4.63 g | Body weight gain, Week Two [1, 9]: +2.19 g | Toxicity [2]: no toxicity | IC50 [3, 10]: 7.17 µM | Epididymal Fat Weight ([4]; 0.1% in diet, 31 days): 3.2 g | Final Body Weight ([4]; 0.1% in diet, 31 days): 301.6 g | Inguinal Fat Weight ([4]; 0.1% in diet, 31 days): 7.1 g | Epididymal Fat Weight ([4]; 0.2% in diet, 31 days): 3.7 g | Final Body Weight ([4]; 0.2% in diet, 31 days): 311.0 g | Inguinal Fat Weight ([4]; 0.2% in diet, 31 days): 7.5 g | Reduction in fat deposition ([4]; anacardic acid in the animal diet, statement on Tables 4 and 7 (broilers and rats)): ≥ 20% | Loss of initial body weight ([4]; rats receiving anacardic acid in diet, 31 days): less than 10% | Fat Weight ([5]; 0.1% in diet): 12 g | Final Body Weight ([5]; 0.1% in diet): 110 g | Fat Weight ([5]; 0.2% in diet): 10 g | Final Body Weight ([5]; 0.2% in diet): 108 g | Loss of the initial body weight ([5]; birds receiving anacardic acid in diet): approximately 10%

CCC/C=C\C/C=C\CCCCCCCc1cccc(O)c1C(=O)O [Compound 3, 6-[8(z), 11(z)-pentadecadienyl] salicylic acid]
IC50 [3, 10]: 3.77 µM

C=CC/C=C\C/C=C\CCCCCCCc1cccc(O)c1C(=O)O [Compound 4, 6-[8(z), 11(z), 14pentadecatrienyl] salicylic acid]
inhibition at 200 µg/mL [6]: 73% | IC50 [3, 10]: 0.876 µM

CCCCCCCCCCCCCCCc1cccc(O)c1 [Compound 5, 3 - Pentadecylphenol]
IC50 [3, 10]: 483 µM

CCCCCCCCCCCCCCCc1cc(O)c(C)c(O)c1 [Compound 9, 2-Methyl-5-pentadecylresorcinol]
IC50 [3, 10]: 38.9 µM

CCCCCC/C=C\CCCCCCCc1cc(O)c(C)c(O)c1 [Compound 10, 2-methyl-5-[8(z)-pentadecenyl]resorcinol]
IC50 [3, 10]: 165 µM

CCC/C=C\C/C=C\CCCCCCCc1cc(O)c(C)c(O)c1 [Compound 11, 2-methyl-5-[8(z), 11(z)-pentadecadienyl] resorcinol]
IC50 [3, 10]: 151 µM

C=CC/C=C\C/C=C\CCCCCCCc1cc(O)c(C)c(O)c1 [Compound 12, 2-methyl-5-[8(z), 11(z), 14-pentadecatrienyl]resorcinol]
inhibition at 200 µg/mL [6]: 79% | IC50 [3, 10]: 170 µM

CCCCCCCCCCCCCCCc1cc(O)cc(O)c1 [Compound 13, 5-Pentadecylresorcinol]
IC50 [3, 10]: 268 µM

C=CC/C=C\C/C=C\CCCCCCCc1cc(O)cc(O)c1 [Compound 16, 5-[8(z), 11(z), 14-pentadecatrienyl]resorcinol]
inhibition at 200 µg/mL [6]: 32% | IC50 [3]: 44.5 µM
